Results: article PMC12030627, “Radioiodinated Bicyclic RGD Peptide Derivatives for Enhanced Tumor Accumulation” (Pharmaceuticals, 2025)
Read-outs that look alike come from different tables or passages of the source. Starred links: 1 amine or outer side, 2 acyl side, 3 side chain; linkers in the order of their positions; H or OH if unused. Positions of bridges follow the written chain, without caps; N, C: chain ends. Non-standard residues stand in square brackets, D forms with d. Residues, ends and D or L forms follow the SMILES beside them. *: point of attachment. TBMB = c1c(C[*:1])cc(C[*:3])cc1C[*:2]; Palmitoyl = CCCCCCCCCCCCCCCC(=O)*; Benzoyl(3-I) = O=C(c1cccc(I)c1)*; 4Abz = Nc1ccc(C(=O)O)cc1

Assay: Biodistribution in U-87 MG tumor-bearing mice
Format: in vivo, BALB/c nu-nu mice
Conditions: male, BALB/c nu-nu, mouse, iv, 37 kBq, total radioactivity, U-87 MG-bearing mice, mean ± SD, n = 3; for tissue uptake at 1 h / tissue uptake dose at 1 h: 1 h after i.v. administration; for tissue uptake at 2 h / tissue uptake dose at 2 h: 2 h after i.v. administration; for tissue uptake at 6 h / tissue uptake dose at 6 h: 6 h after i.v. administration; for tissue uptake at 5 min / tissue uptake dose at 5 min: 5 min after i.v. administration; for tissue uptake at 0.5 h / tissue uptake dose at 0.5 h: 30 min after i.v. administration
Description: Animal experiments were performed in compliance with institutional animal care regulations, with the study protocol approved by the Experimental Animal Committee of Osaka Medical and Pharmaceutical University (Approval Numbers: 21–76, 22–76, and 23–76). Four-week-old male BALB/c nu-nu mice (Japan SLC, Shizuoka, Japan) were housed under a 12 h light/12 h dark cycle with free access to food and water. Tumor-bearing mice were established by suspending U-87 MG cells (2 × 10^6 cells/mouse) in PBS(–) and subcutaneously injecting 100 μL of the suspension into the right hind leg. For co-implantation models, A549 cells (2 × 10^6 cells/mouse) were suspended in PBS(–) and inoculated (100 μL) into the left hind leg of the same mice already inoculated with U-87 MG cells. Mice with tumor size approximately 10 mm in diameter, 4–5 weeks after inoculation, were used for biodistribution studies. Animals in which either tumor was not viable were excluded from the experiment.
U-87 MG-bearing mice (n = 42, 8–9 weeks old; 22–27 g) were randomly assigned into groups and administered [^125I]bcRGDpal or [^125I]bcRGDiba via intravenous injection (37 kBq in 100 μL of PBS containing 0.1% Tween 80 (PBS-T80)). At 5 min, 30 min, 1 h, 2 h, 6 h, 12 h, or 24 h post-injection, the mice were euthanized (n = 3 per time point). The heart, kidneys, liver, brain, pancreas, spleen, lung, small intestine, large intestine, muscle, skin, stomach, bone, and tumors were excised. Each organ’s weight and radioactivity were measured by a NaI well-type scintillation counter, and the % ID/g was calculated. To investigate the correlation between integrin expression and radioactivity accumulation, biodistribution at 2 h after administration of [^125I]bcRGDpal or [^125I]bcRGDiba was assessed in A549 and U-87 MG co-implantation mice (n = 5) using the same procedure. Additionally, co-implantation mice were injected with [^125I]bcRGDdimer (37 kBq/100 μL PBS-T80) and euthanized at 30 min, 2 h, and 4 h post-injection (n = 4 per time point), and % ID/g values were calculated as described above. The minimum sample size needed for the biodistribution study in U-87 MG-bearing mice was calculated using G Power software version 3.1.9.7. The calculation was based on a two-tailed test, with an effect size of 3.9, a significance level (α) of 0.05, and a statistical power (1 − β) of 0.8. […] The minimum required sample size for the biodistribution study in A549 and U-87 MG co-implantation mice was also calculated to be four animals per group (effect size = 2.5, α = 0.05, 1 − β = 0.8). To guarantee objective results, the experiment was carried out in a blinded manner. Specifically, drug administration and radioactivity measurements were conducted by different investigators to eliminate potential bias.

[1] = liver, read-out: Radioactivity in liver
[2] = lung, read-out: Radioactivity in lung
[3] = muscle, read-out: Radioactivity in muscle
[4] = pancreas, read-out: Radioactivity in pancreas
[5] = small intestine, read-out: Radioactivity in small intestine
[6] = spleen, read-out: Radioactivity in spleen
[7] = stomach, read-out: Radioactivity in stomach
[8] = thyroid, read-out: Radioactivity in thyroid

For `CCCCCCCCCCCCCCCC(=O)N[C@@H](CCCCNC(=O)c1cccc(I)c1)C(=O)N1CCC[C@H]1C(=O)N1CCC[C@H]1C(=O)N1CCC[C@H]1C(=O)N[C@@H](CO)C(=O)NCC(=O)Nc1ccc(C(=O)N[C@@H](CO)C(=O)NCC(=O)N[C@H]2CSCc3cc4cc(c3)CSC[C@@H](NC(=O)[C@H](CCC(N)=O)NC(=O)[C@@H]3CCCN3C(=O)[C@H](Cc3c[nH]cn3)NC2=O)C(=O)N[C@@H](CCCNC(=N)N)C(=O)NCC(=O)N[C@@H](CC(=O)O)C(=O)N[C@@H](C(N)=O)CSC4)cc1` [[^125I]bcRGDpal] (Palmitoyl-K(Benzoyl(3-I))PPPSG[4Abz]SGCHPQ[dC]RGD[dC]-NH2; linker 10-14-18 via TBMB), the tissue uptake at 1 h [1] was 15.8 ± 0.9 %ID/g, the tissue uptake at 2 h [1] was 12.3 ± 0.3 %ID/g and the tissue uptake at 6 h [1] was 6 ± 0.2 %ID/g. The tissue uptake at 12 h (liver, 12 h after i.v. administration, read-out: Radioactivity in liver) was 1.9 ± 0.2 %ID/g, the tissue uptake at 24 h (liver, 24 h after i.v. administration, read-out: Radioactivity in liver) was 0.5 %ID/g and the tissue uptake at 5 min [2] was 11.8 ± 1.3 %ID/g. For the same compound, the tissue uptake at 0.5 h [2] was 11.2 ± 1 %ID/g, the tissue uptake at 1 h [2] was 9.6 ± 1.3 %ID/g and the tissue uptake at 2 h [2] was 7.8 ± 1 %ID/g. It also gave a tissue uptake at 6 h [2] of 4.4 ± 0.5 %ID/g, a tissue uptake at 12 h (lung, 12 h after i.v. administration, read-out: Radioactivity in lung) of 2.2 ± 0.3 %ID/g and a tissue uptake at 24 h (lung, 24 h after i.v. administration, read-out: Radioactivity in lung) of 0.6 ± 0.1 %ID/g. It also gave a tissue uptake at 5 min [3] of 1.4 ± 0.3 %ID/g, a tissue uptake at 0.5 h [3] of 1.6 ± 0.2 %ID/g and a tissue uptake at 1 h [3] of 1.4 ± 0.2 %ID/g. For the same compound, the tissue uptake at 2 h [3] was 1.1 ± 0.1 %ID/g, the tissue uptake at 6 h [3] was 0.6 ± 0.1 %ID/g and the tissue uptake at 12 h (muscle, 12 h after i.v. administration, read-out: Radioactivity in muscle) was 0.3 %ID/g. For the same compound, the tissue uptake at 24 h (muscle, 24 h after i.v. administration, read-out: Radioactivity in muscle) was 0.1 %ID/g, the tissue uptake at 5 min [4] was 2.8 ± 0.2 %ID/g and the tissue uptake at 0.5 h [4] was 2.5 ± 0.3 %ID/g. For the same compound, the tissue uptake at 1 h [4] was 1.9 ± 0.1 %ID/g, the tissue uptake at 2 h [4] was 1.6 ± 0.1 %ID/g and the tissue uptake at 6 h [4] was 1.2 ± 0.3 %ID/g. The tissue uptake at 12 h (pancreas, 12 h after i.v. administration, read-out: Radioactivity in pancreas) was 0.4 %ID/g, the tissue uptake at 24 h (pancreas, 24 h after i.v. administration, read-out: Radioactivity in pancreas) was 0.1 %ID/g and the tissue uptake at 5 min [5] was 2.3 ± 0.2 %ID/g. For the same compound, the tissue uptake at 0.5 h [5] was 4.5 ± 0.6 %ID/g, the tissue uptake at 1 h [5] was 7 ± 0.3 %ID/g and the tissue uptake at 2 h [5] was 9.3 ± 0.9 %ID/g. It also gave a tissue uptake at 6 h [5] of 4 ± 0.2 %ID/g, a tissue uptake at 12 h (small intestine, 12 h after i.v. administration, read-out: Radioactivity in small intestine) of 1.9 ± 0.5 %ID/g and a tissue uptake at 24 h (small intestine, 24 h after i.v. administration, read-out: Radioactivity in small intestine) of 0.3 %ID/g. The tissue uptake at 5 min [6] was 5.1 ± 0.4 %ID/g, the tissue uptake at 0.5 h [6] was 5.9 ± 0.8 %ID/g and the tissue uptake at 1 h [6] was 4.6 ± 0.6 %ID/g. It also gave a tissue uptake at 2 h [6] of 3.7 ± 0.1 %ID/g, a tissue uptake at 6 h [6] of 1.9 ± 0.2 %ID/g and a tissue uptake at 12 h (spleen, 12 h after i.v. administration, read-out: Radioactivity in spleen) of 0.8 ± 0.1 %ID/g. The tissue uptake at 24 h (spleen, 24 h after i.v. administration, read-out: Radioactivity in spleen) was 0.2 %ID/g, the tissue uptake dose at 5 min [7] was 0.5 ± 0.1 %ID and the tissue uptake dose at 0.5 h [7] was 0.6 ± 0.1 %ID. The tissue uptake dose at 1 h [7] was 0.7 ± 0.1 %ID, the tissue uptake dose at 2 h [7] was 0.8 ± 0.1 %ID and the tissue uptake dose at 6 h [7] was 0.4 %ID. The tissue uptake dose at 12 h (stomach, 12 h after i.v. administration) was 0.4 ± 0.3 %ID, the tissue uptake dose at 24 h (stomach, 24 h after i.v. administration) was 0.1 ± 0.1 %ID and the tissue uptake dose at 5 min [8] was 0.1 %ID. It also gave a tissue uptake dose at 0.5 h [8] of 0.1 ± 0.1 %ID, a tissue uptake dose at 1 h [8] of 0.1 ± 0.1 %ID and a tissue uptake dose at 2 h [8] of 0.1 ± 0.1 %ID. The tissue uptake dose at 6 h [8] was 0.1 %ID.
